According to patent publication US9598463B2, “Mucin hypersecretion inhibitors and methods of use” (BIOMARCK PHARMACEUTICALS, LTD., priority 2005, dated 2017):
Marks after values point to notes of the source that are not given here. Where a SMILES comes first, the peptide text is derived from it. The star is where a group is joined. Myristoyl = CCCCCCCCCCCCCC(=O)*

Legend:
[1] = Qualitative solubility of test peptides in 0.5 N saline; assay type: physicochemical; conditions: pH 6.5, 20° C. (table title)
Experimental: Various test peptides (1 to 5 mg each) were weighed out accurately in individual 2 mL screw cap glass vials and aliquots of 25 μL of 0.5 N saline, pH 6.5, were added at 25° C. and ambient pressure. The solubility was evaluated visually. If the test peptide dissolves completely with the first aliquot of saline, its solubility was calculated and designated as more than the calculated amount. […] Similarly, if 1.7 mg of a test peptide fails to dissolve in 1.7 mL of 0.5 N saline, its solubility is stated as <1.0 mg/mL.

[2] = Stability of test peptides in human plasma (LC/MS/MS, first order half-life); assay type: in vitro ADME
Experimental: (§1) Various test peptides in human plasma, human BALF, and CF patient mucus were analyzed to determine the susceptability of the test peptide to proteolysis in the biological fluids. […] The samples were analyzed either on the same day as received or stored at −20° C. and analyzed within the following two days.
Fresh human blood samples were collected in citrate buffered vacuutrainers (in absence of EDTA or heparin). Red blood cells (RBC) were removed by centrifugation of the blood at 4000×g for 10 min at 4° C. Plasma aliquots (0.9 mL) were then spiked with 0.1 mL of 0.5 mg/mL solution of the test peptide in 75 mM sodium acetate buffer at pH 7.0 and incubated in a water bath maintained at 37° C. Duplicate aliquots of 10 μL, were withdrawn at 5, 15, 30, 60, and 180 minutes intervals and immediately “quenched” with 990 μL of a solution consisting of 50% acetonitrile+50% water containing 0.2% formic acid. The samples were then subjected to liquid chromatography-mass spectrometry (LCMS) analysis.
(§2) All samples were analyzed using LC/MS/MS (MDS/SCIEX, API 4000 Model). Chromatography was performed using a Phenomenex Luna C18 column, while mass spectrometry was performed using positive ion electrospray ionization.
Calibration standards were analyzed by LCMS at concentrations of 0.100 μg/mL, 1.00 μg/mL, 10.0 μg/mL, and 100 μg/mL for each peptide, with the exception of the calibration standards for peptides myr-PEPTIDE 106, PEPTIDE 106, PEPTIDE 106-NH2, PEPTIDE 106, and cyclic peptide, cyc-PEPTIDE 106, in human mucus, which were analyzed at concentrations of 0.100 μg/mL, 1.00 μg/mL, 10.0 μg/mL, and 75 μg/mL. Standards were prepared in 1% human BALF, plasma, or mucus in 50/50 water/acetonitrile mixture containing 0.2% formic acid. The instrument response values for each set of standards were fit using a 1/(concentration)^2 linear least-squares line. Sample concentrations were calculated using the slope and intercept of this line. Concentrations outside of the calibration range were determined by extrapolating the calibration curve. […]
For the analysis of peptide concentration in plasma, duplicate calibration standards were analyzed at a concentration of 25 μg/mL and 50 μg/mL for each peptide. The instrument response values for each set of standards were fit through an intercept of 0 using an unweighted, linear least-squares line. Sample concentrations were calculated using the slope and intercept of this line. Concentrations outside of the calibration range were determined by extrapolating the calibration curve.
(§3) Watson fits the log transformed data with a least-squares line to determine parameters such as Cmax (maximum concentration), intercept, rate constant, slope, and T1/2 (half-life). The resulting kinetic parameters were based on the linear fit, not the actual concentration values.
(§4) Time-zero calibration standards in solution were not included as part of the kinetic profiles.

[3] = Stability of test peptides in human BALF (LC/MS/MS, first order half-life); assay type: in vitro ADME
Experimental: as §1
Samples of BALF collected from COPD patients were obtained and frozen. The BALF samples were thawed, mixed together and centrifuged at 10,000×g for 10 min at 4-8° C. The supernatant (0.9 mL) was spiked with 0.1 mL of 0.5 mg/mL solution of the peptide in 75 mM sodium acetate buffer at pH 7.0 and processed and analyzed as described above.
as §2
(§5) Calibration standards were analyzed by LCMS at concentrations of 0.100 μg/mL, 1.00 μg/mL, 10.0 μg/mL, and 100 μg/mL for each peptide, with the exception of the calibration standards for peptides myr-PEPTIDE 106, PEPTIDE 106, PEPTIDE 106-NH2, PEPTIDE 106, and cyclic peptide, cyc-PEPTIDE 106, in human mucus, which were analyzed at concentrations of 0.100 μg/mL, 1.00 μg/mL, 10.0 μg/mL, and 75 μg/mL. Standards were prepared in 1% human BALF, plasma, or mucus in 50/50 water/acetonitrile mixture containing 0.2% formic acid. The instrument response values for each set of standards were fit using a 1/(concentration)^2 linear least-squares line. Sample concentrations were calculated using the slope and intercept of this line. Concentrations outside of the calibration range were determined by extrapolating the calibration curve.
Duplicate calibration standards were analyzed at a concentration of 50 μg/mL for each peptide. The instrument response values for each set of standards were fit through an intercept of 0 using an unweighted, linear least-squares line. Sample concentrations were calculated using the slope and intercept of this line.
For the analysis of peptide concentration in BALF samples, one 50 μg/mL calibration standard prepared in a mixture of BALF, water, acetonitrile, and formic acid was analyzed with each sample set.
as §3, §4

HBE1 cells = assay: PMA-induced mucin hypersecretion in human bronchial epithelial cells (air/liquid interface, MUC5A ELISA); assay type: cell-based; conditions: 0.5 μM PMA, 30 min
Experimental: HBE1 is a papilloma virus-transformed human bronchial epithelial cell line capable of mucin secretion when cultured in air/liquid interface. HBE1 cells were cultured in the air/liquid interface as described previously (Li et al, J. Biol. Chem., volume 276, pp 40982-40990, 2001). Briefly, HBE1 cells were cultured in air/liquid interface by seeding an appropriate number of cells in 12-well Transwell clear culture inserts (Costar, Cambridge, Mass.) that were thinly coated with rat tail collagen, type I (Collaborative Biomedical, Bedford, Mass.). Cells were initially cultured submerged in medium in a humidified 95% air, 5% CO2 environment for 5-7 days until nearly confluent. At that time, the air/liquid interface was created by removing the apical medium and feeding cells basalaterally. Medium was renewed daily thereafter. Cells were cultured for an additional 14 days to allow full differentiation. The accumulated mucin at the apical surface of the cells was removed by washing with phosphate-buffered saline, pH 7.2. To collect the baseline mucin secretion, cells were incubated for 30 min with medium alone and secreted mucin in the apical medium was collected, and quantitated by ELISA. To determine the mucin hypersecretion induced by a mucin secretagogue, cells were exposed to medium containing 0.5 μM phorbol myristate acetate, (PMA) for 30 min. and mucin was collected and quantitated by ELISA. […] Six wells were used for each test peptides and for each control. Secreted mucin in the apical medium was collected and quantitated by sandwich ELISA method using alkaline phosphatase-conjugated mucin (MUC5A) specific antibody (Zymed Laboratories, San Francisco, Calif.).

[4] = tested on: methacholine-induced mucin hypersecretion; assay: Methacholine-induced mucin hypersecretion in ovalbumin-sensitized mouse model of asthma, BAL mucin ELISA (Balb/C mice); assay type: in vivo; conditions: for Mucin Secretion % control: Table II, peptides at 100 μM, 50 μL intratracheal 15 min before methacholine; for Mucin Secretion % of control: Table IV
Description: Experiments were designed to test whether or not the MANS peptide and other test peptides related thereto inhibit hypersecretion of mucin in murine airway in vivo. The ovalbumin-sensitized mouse model of allergic inflammation and asthma used in these studies was as described by Singer et al. (2004), supra. As a negative control, a control peptide containing an N-terminal myristoyl group and the same amino acids as MANS peptide but arranged in random order (i.e., the random N-terminal sequence, RNS, myristoyl-peptide 232) was tested alongside the proposed active peptides. BP2 mice, aged 6-8 wks, were immunized subcutaneously twice at weekly intervals with 1 μg of ovalbumin. After 14 days of sensitization, the animals were exposed to aerosolized ovalbumin, which causes a pronounced goblet cell hyperplasia after 72 hours. At the 72 hr time point, the secretagogue, methacholine ([…]) was delivered using a Buxco system nebulizer providing a fine aerosol for 90 seconds. Fifteen min prior to the secretagogue challenge, 50 μL of the test peptide, at 3 different concentrations (10 μM, 100 μM, or 140 μM), was administered by intratracheal route. The RNS peptide was tested at the highest dose level only (50 μL of 140 μM solution). […] Each experiment was carried out in 6 mice per point, and each set of experiments was repeated 3 times. To test strain-to-strain variations, the above experiment was repeated in Balb/C mice under similar protocol. Both stimulated and unstimulated mucin secretion, in mice treated with […] sodium acetate (data not shown), were identical to saline control. Following the methacholine challenge, the animals were sacrificed and bronchoalveolar lavage (BAL) performed on 6 animals per group for analysis of secreted mucin.
Mice were sacrificed by cervical dislocation, followed by rapid exposure of the trachea and insertion of a cannula through a small incision. Bronchoalveolar lavage (BAL) fluid was collected with 0.5 ml followed by 3×1 ml PBS containing PMSF (5 mM), EDTA (5 mM), and DTT (5 mM). BAL fluid was separated into cell-free and cell fractions via brief centrifugation prior to any analyses being performed. The cell-free supernatants were analyzed for the presence of mucin via an ELISA method using anti-mucin antibodies shown to react with mouse mucin. Specifically, a mouse anti-MUC5AC antibody that recognizes the carbohydrate portion of secreted mucin was used in these assays. Data generated from each BAL sample were normalized to total protein as determined by Bradford assay. Mucin content was expressed as the value obtained with the anti-mucin antibody minus that obtained with the non-immune control antibody. All ELISA data were statistically examined using a one-way ANOVA.

[5] = Stability of test peptides in human CF mucus (LC/MS/MS, first order half-life); assay type: in vitro ADME
Experimental: as §1
The frozen mucus (sputum) from a CF patient was thawed and mixed with 2 volumes of 75 mM sodium acetate buffer, pH 7 with the help of a glass tissue grinder, centrifuged at 10,000×g for 10 min at 4-8° C. The pellet was re-suspended in 1 volume of the acetate buffer and centrifuged. The two supernatants were combined and used as follows. The supernatant (450 μL) was spiked with 50 μL, of 0.5 mg/mL solution of the peptide in 75 mM sodium acetate buffer at pH 7.0 and processed and analyzed as described above.
as §2, §5, §3, §4

[6] = human plasma, 37° C., 1st experiment, read-out: Plasma t1/2 (1st exp.) (converted)
[7] = human plasma, 37° C., 2nd experiment, read-out: Plasma t1/2 (2nd exp.) (converted)
[8] = human BALF from COPD patients, 1st experiment, read-out: BALF t1/2 (1st exp.) (converted)

Compound | solubility [1] | half-life [2, 6] | Mucin Secretion % control [4] | half-life [2, 7] | half-life [3, 8] | other results
CCCCCCCCCCCCCC(=O)NCC(=O)N[C@@H](C)C(=O)N[C@@H](CCC(N)=O)C(=O)N[C@@H](C)C(=O)N[C@@H](CO)C(=O)N[C@@H](CCCCN)C(=O)N[C@H](C(=O)N[C@@H](C)C(=O)N[C@@H](C)C(=O)N[C@@H](CCCCN)C(=O)O)[C@@H](C)O [myr-peptide 236] (Myristoyl-GAQASKTAAK-OH) | < 10000 µg/mL | 43.2 min | – | – | – | half-life ([3]; cerebrospinal or other body fluid, human BALF from COPD patients, 1st experiment, read-out: BALF t1/2 (1st exp.) (converted)): 213 min; half-life ([3]; cerebrospinal or other body fluid, human BALF from COPD patients, 2nd experiment, read-out: BALF t1/2 (2nd exp.) (converted)): 176 min
CCCCCCCCCCCCCC(=O)O[C@@H]1[C@@H](C)[C@@]2(O)[C@@H](C=C(CO)C[C@]3(O)C(=O)C(C)=C[C@@H]23)[C@@H]2C(C)(C)[C@]12OC(C)=O [PMA, phorbol myristate acetate, reference compound] | – | – | – | – | – | Increase in mucin secretion (HBE1 cells): 20%
CCCCCCCCCCCCCC(=O)NCC(=O)N[C@@H](C)C(=O)N[C@@H](CCC(N)=O)C(=O)N[C@@H](Cc1ccccc1)C(=O)N[C@@H](CO)C(=O)N[C@@H](CCCCN)C(=O)N[C@H](C(=O)N[C@@H](C)C(=O)N[C@@H](C)C(=O)N[C@@H](CCCCN)C(=O)O)[C@@H](C)O [myr-peptide 106] (Myristoyl-GAQFSKTAAK-OH) | > 10000 µg/mL | – | 33.6 % control | – | – | Mucin Secretion % of control ([4]; peptide 10 μM): 74*+ % of control; Mucin Secretion % of control ([4]; peptide 100 μM): 24** % of control; half-life ([2]; Plasma t1/2 (1st exp.)): 73.8 min; half-life ([2]; Plasma t1/2 (2nd exp.)): 54 min; half-life [3]: 61.8 min; half-life ([5]; cerebrospinal or other body fluid, pH 7, Mucus t1/2 (1st exp.)): 572 min; half-life ([5]; cerebrospinal or other body fluid, pH 7, Mucus t1/2 (2nd exp.)): 180 min
C[C@@H]1NC(=O)CNC(=O)[C@H](CCCCN)NC(=O)[C@H](C)NC(=O)[C@H](C)NC(=O)[C@H]([C@@H](C)O)NC(=O)[C@H](CCCCN)NC(=O)[C@H](CO)NC(=O)[C@H](Cc2ccccc2)NC(=O)[C@H](CCC(N)=O)NC1=O [cyclic-peptide 106] (cyclo(GAQFSKTAAK)) | > 150000 µg/mL | – | – | 62.4 min | – | half-life ([5]; human CF mucus, 1st experiment, read-out: Mucus t1/2 (1st exp.) (converted)): 66 min; half-life ([5]; human CF mucus, 2nd experiment, read-out: Mucus t1/2 (2nd exp.) (converted)): 120 min
CCCCCCCCCCCCCC(=O)NCC(=O)N[C@@H](C)C(=O)N[C@@H](CCC(N)=O)C(=O)N[C@@H](Cc1ccccc1)C(=O)N[C@@H](CO)C(=O)N[C@@H](CCCCN)C(=O)N[C@H](C(=O)N[C@@H](CCCCN)C(=O)N[C@@H](C)C(=O)N[C@@H](CCCCN)C(=O)NCC(=O)N[C@@H](CCC(=O)O)C(N)=O)[C@@H](C)O [myr-peptide 234-NH2] (Myristoyl-GAQFSKTKAKGE-NH2) | < 2000 µg/mL | 229 min | 27.8 % control | – | 102 min | –
H-GAQFSKTAAK-NH2 [peptide 106-NH2] | > 100000 µg/mL | 18 min | – | 7.8 min | 240 min | half-life ([5]; cerebrospinal or other body fluid, pH 7, human CF mucus, 1st experiment, read-out: Mucus t1/2 (1st exp.) (converted)): 4.8 min; half-life ([5]; cerebrospinal or other body fluid, pH 7, human CF mucus, 2nd experiment, read-out: Mucus t1/2 (2nd exp.) (converted)): 7.8 min
